Consider one compound from paper PMC5030160 (Nature chemical biology, 2016).

The target in this assay is Pdr5 (Saccharomyces cerevisiae, UniProt P33302). Description: fluorescence transport assay in isolated plasma membranes. In kind it is biochemical. The settings on record: 150 nM R6G, 10 mM ATP, 5 mM MgCl2, Hepes pH 7.0, 30 °C.
Chain of Pdr5 (P33302 whole entry): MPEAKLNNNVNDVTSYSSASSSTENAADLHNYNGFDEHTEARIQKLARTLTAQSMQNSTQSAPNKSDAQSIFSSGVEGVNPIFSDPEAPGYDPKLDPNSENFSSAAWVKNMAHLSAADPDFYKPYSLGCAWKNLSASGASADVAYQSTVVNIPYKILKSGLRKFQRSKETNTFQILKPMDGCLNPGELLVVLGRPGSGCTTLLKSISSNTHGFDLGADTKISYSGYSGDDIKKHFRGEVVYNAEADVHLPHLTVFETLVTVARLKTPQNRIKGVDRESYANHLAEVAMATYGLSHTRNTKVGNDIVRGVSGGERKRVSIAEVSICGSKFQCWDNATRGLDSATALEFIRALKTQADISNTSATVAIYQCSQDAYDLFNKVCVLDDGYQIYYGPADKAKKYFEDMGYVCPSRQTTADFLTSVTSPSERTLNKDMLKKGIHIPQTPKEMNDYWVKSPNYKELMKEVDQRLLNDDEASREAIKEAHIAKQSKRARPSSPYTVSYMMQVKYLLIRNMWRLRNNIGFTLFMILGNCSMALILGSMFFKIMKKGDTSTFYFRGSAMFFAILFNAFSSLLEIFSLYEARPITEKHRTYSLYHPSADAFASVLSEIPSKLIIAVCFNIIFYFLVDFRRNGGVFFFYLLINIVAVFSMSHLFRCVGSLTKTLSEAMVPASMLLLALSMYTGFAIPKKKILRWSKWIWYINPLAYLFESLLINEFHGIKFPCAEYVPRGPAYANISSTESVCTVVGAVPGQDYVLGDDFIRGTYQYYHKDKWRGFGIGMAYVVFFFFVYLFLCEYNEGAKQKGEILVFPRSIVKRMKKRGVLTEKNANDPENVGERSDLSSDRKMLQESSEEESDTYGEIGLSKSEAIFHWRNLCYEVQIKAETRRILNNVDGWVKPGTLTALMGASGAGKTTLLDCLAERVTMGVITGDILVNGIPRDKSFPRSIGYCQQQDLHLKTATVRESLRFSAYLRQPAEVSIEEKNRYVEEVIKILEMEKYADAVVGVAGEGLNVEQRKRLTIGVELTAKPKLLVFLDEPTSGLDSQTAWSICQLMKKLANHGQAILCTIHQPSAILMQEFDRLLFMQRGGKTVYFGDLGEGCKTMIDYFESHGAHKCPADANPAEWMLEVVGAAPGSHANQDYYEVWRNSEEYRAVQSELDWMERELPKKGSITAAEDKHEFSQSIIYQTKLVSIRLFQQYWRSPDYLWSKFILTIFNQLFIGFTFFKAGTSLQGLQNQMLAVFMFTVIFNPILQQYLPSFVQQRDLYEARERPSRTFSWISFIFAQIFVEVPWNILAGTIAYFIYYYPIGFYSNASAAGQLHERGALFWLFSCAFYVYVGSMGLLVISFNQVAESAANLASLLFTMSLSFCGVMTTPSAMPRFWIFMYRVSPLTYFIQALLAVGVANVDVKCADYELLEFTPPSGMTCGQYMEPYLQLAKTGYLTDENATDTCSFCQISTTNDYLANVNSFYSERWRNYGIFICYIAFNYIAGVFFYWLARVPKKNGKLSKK

With `CCN=c1cc2oc3cc(NCC)c(C)cc3c(-c3ccccc3C(=O)OCC)c-2cc1C` [rhodamine-6G], the “fluorescence transport assay in isolated plasma membranes” value is on record as “Active transport of rhodamine-6G (R6G) was determined according to a standard protocol”.
